Columns and labels:
[1] = tested on: Spodoptera littoralis; test: B10a: Systemic Insecticide Test for Spodoptera littoralis (cotton leafworm); assay type: in vivo; settings: systemic via maize seedlings, 1st instar larvae
Method: […] Seedlings are allowed to grow for six days. Subsequently leaves are cut and placed in a Petri dish (5 cm diameter), inoculated with twelve to fifteen 1st instar S. littoralis larvae and incubated for four days in a growth chamber (25° C., 50% r.h., 18:6 L:D photo period). Number of alive insects are counted and percentage of dead calculated. Tests were conducted with one replicate.

[2] = tested on: Heliothis virescens; test: B10b: Insecticide Test for Heliothis virescens (tobacco budworm); assay type: in vivo; settings: for Percent larvae showing growth reduction (compared to control): eggs on artificial diet topically treated, one week; for mortality at 0.05 ppm / mortality at 0.2 ppm / mortality at 0.8 ppm / mortality at 3 ppm: Heliothis virescens, topical, 168 h, read-out: Percent larvae mortality
Method: 50-60 newly laid H. virescens eggs were placed on artificial diet in Petri dishes (5 cm diameter) and topically treated with 0.8 ml solution of compounds at the following rates: 3, 0.8, 0.2, 0.05. Petri dishes are maintained at 26±2° C., 50±10% r.h. in a dark room and assessment conducted one week after application (two replicates/treatment). Larvae mortality and effects on larvae growth were compared to the control.

[3] = tested on: Plutella xylostella; test: B10c: Insecticide Test for Plutella xylostella (diamond back moth); assay type: in vivo; settings: sprayed Chinese cabbage leaf disks, L3 larvae
Method: Chinese cabbage plants were sprayed with insecticide at 3, 0.8, 0.2 and 0.05 ppm. Five cm diameter leaf disks were cut and placed in a Petri dish containing 6 ml agar (0.8%). Five P. xylostella larvae L3 were introduced into Petri dishes and kept at 26±2° C., 50±10% r.h. in a dark room (two replicates per treatment). […]

[4] = tested on: Diabrotica balteata; test: Example B2: activity against Diabrotica balteata, sprayed maize seedlings; settings: in Zea mays, 144 h, read-out: percentage reduction in the population (% activity)

| Structure (SMILES) | Death rate (%) after 4 days ([1]; 0.2 ppm) | Death rate (%) after 4 days ([1]; 0.8 ppm) | Death rate (%) after 4 days ([1]; 3 ppm) | Percent larvae showing growth reduction (compared to control) ([2]; 0.05 ppm) | Percent larvae showing growth reduction (compared to control) ([2]; 0.2 ppm) | Percent larvae showing growth reduction (compared to control) ([2]; 0.8 ppm) | Percent larvae showing growth reduction (compared to control) ([2]; 3 ppm) | mortality at 0.05 ppm [2] | mortality at 0.2 ppm [2] | mortality at 0.8 ppm [2] | mortality at 3 ppm [2] | Death rate (%) ([3]; 0.05 ppm) | Death rate (%) ([3]; 0.2 ppm) | Death rate (%) ([3]; 0.8 ppm) | Death rate (%) ([3]; 3 ppm) | inhibition at 400 ppm [4] |
| --- | --- | --- | --- | --- | --- | --- | --- | --- | --- | --- | --- | --- | --- | --- | --- | --- |
| Cc1cccc(C(=O)NCC2CO2)c1NC(=O)c1cc(C(F)(F)F)nn1-c1ncccc1Cl (stereo not shown) [Comp. 566, reference compound] | 0% | 0% | 0% | 0% | 0% | 0% | 0% | 0% | 0% | 0% | 0% | 0% | 10% | 5% | 25% | – |
| Cc1cc(Cl)cc(C(=O)NCC2CCO2)c1NC(=O)c1cc(C(F)(F)F)nn1-c1ncccc1Cl (stereo not shown) [Compound P25, N-(4-chloro-2-methyl-6-[([oxetan-2-ylmethyl]amino)carbonyl]phenyl)-1-(3-chloro-2-pyridinyl)-3-(trifluoromethyl)-1H-pyrazole-5-carboxamide] | – | – | – | – | – | – | – | – | – | – | – | – | – | – | – | > 80% |
| Cc1cccc(C(=O)NCC2CC2)c1NC(=O)c1cc(C(F)(F)F)nn1-c1ncccc1Cl [Compound P41] | 20% | 80% | 100% | 0% | 45% | 100% | 100% | 0% | 0% | 0% | 0% | 0% | 0% | 80% | 60% | – |
